Experimental data from patent US11583529B2, “Treatment of inflammatory disorders” (Aldeyra Therapeutics, Inc., priority 2017, dated 2023).
Entries after “also recorded” stand apart in the source; their conditions may differ.

Tests used:
[1] = tested on: rat model of endotoxin induced uveitis; assay: Rat model of endotoxin-induced uveitis (EIU), topical or intravitreal treatment; type: in vivo, female Lewis rats; conditions: for overall ophthalmic examination score: vs control (BSS) topical
Protocol: An in vivo study was conducted to assess the efficacy of intravitreal administration of compound I-22 in a rat model of endotoxin induced uveitis, one of the most appropriate models for the study of NIU (Smith et al., 1998) (Toxikon Study 16-04078-N1). Ocular inflammation was induced in female Lewis rats (n=10/group) by a single foot pad injection of LPS (100 μL) (Herbort et al., 1988, Graefe's Arch Clin Exp Ophthalmol. 226:553-558). Compound I-22 (5 mg/mL) was administered intravitreally into each eye (25 μg/eye), or topically to both eyes at 1, 3, 7, 10, and 17 hours post-LPS injection, within one hour of LPS administration. Balanced salt solution (BSS) served as a vehicle control. Retinal exams were performed prior to study start and six and 24 hours following LPS administration and scored using a Combined Draize and McDonald Shadduck scoring system, based on assessments of: retinal vasculopathy and retinal hemorrhage, exudate, and detachment.
Endotoxin-induced uveitis was created by a single injection of lipopolysaccharide (LPS; 100 μL) into one hind footpad. Ten (10) female Lewis rats per group received control (balanced salt solution, BSS) or test article (compound I-22) topically to both eyes at 1, 3, 7, 10, and 17 hours post-LPS injection. At each dosing time point, two drops (5 μL each, separated by approximately two minutes, for a total of 10 μL/eye/dose) were instilled into each eye of the animals. Ten female Lewis rats per group received control (BSS) or compound I-22 by a single intravitreal injection (IVT) in each eye at one hour post-LPS injection. Each eye received 5 μL of vehicle or test article.
Animals were anesthetized with isoflurane 1-3.5% for ophthalmic examinations. Both eyes of each animal were evaluated pre-dose using slit-lamp biomicroscopy, and an indirect ophthalmoscope or a surgical microscope, according to the Combined Draize and McDonald-Shadduck Scoring System, and the Ocular Posterior Segment Scoring Scale. All pupils were dilated with 1% tropicamide ophthalmic solution before ocular examination. Only rats showing no signs of eye irritation, ocular defects or preexisting corneal injury were used in the study.
Ophthalmic examinations were performed on both eyes of each animal approximately six and 24 hours following LPS administration, using slit-lamp biomicroscopy and a surgical microscope or via indirect ophthalmoscopy. Pupils were dilated with 1% Tropicamide Ophthalmic Solution before ophthalmic examinations.
Quantitative, continuous data from this study were analyzed using one-way ANOVA. Alternative or additional statistical methods were used as necessary.
In the same study, the efficacy of compound 1-5 was compared to that of compound 1-22. Compound 1-5 was topically administered topically to the eye at hours 1, 3, 7, 10, and 17, after LPS induction, or by a single intravitreal (IVT) injection one hour after LPS induction (n=10 per group), as was compound I-22. Ocular exams were performed 6 and 24 hours after LPS injection. Anterior segments were scored using a combined Draize and McDonald-Shadduck scoring system, and posterior segments were scored using 0 to 1 (vitreous, optic disc, retinal vasculature) and 0 to 4 (retinal and choroidal hemorrhage, exudation, and detachment) scales. Statistical significance from vehicle control was determined by ANOVA, followed by Tukey's post hoc test.

[2] = tested on: dextran sulfate sodium (DSS)-induced acute ulcerative colitis (UC); assay: 7-Day DSS-induced acute ulcerative colitis model; type: in vivo, female Swiss Webster mice; conditions: vs PO vehicle
[3] = intravitreal administration, vs vehicles
[4] = 200 mg/kg PO BID, Days 0 through 6
[5] = 200 mg/kg PO BID, Days −3 through 6

## CC(C)(O)c1cc2oc(-c3ccccc3)nc2cc1N [Compound I-22]
[1]; IVT, vs vehicle
  ocular exam scores: significantly improved
[1]; IVT, vs vehicle controls (FIG. 2)
  sums of the mean retinal examination scores: significantly reduced
[1]; [3]
  Total ocular inflammation: lower
  anterior chamber inflammation: lower
  retina-choroid inflammation: lower
[1]; overall
  signs of inflammation in the rat EIU model: reduced
[1]; overall, I-22 compared with I-5
  response in the EIU model: slightly more positive response
[1]; single IVT injection (25 μg/eye), approximately six and 24 hours post LPS, vs control IVT
  ophthalmic examination scores: significantly lower
[1]; topical (TO), 6 hours and 24 hours, vs vehicle
  ocular exam scores: significantly improved
[1]; topical (TO), vs vehicle
  Total ocular inflammation score: lower
  anterior chamber inflammation score: lower
  retina-choroid inflammation score: lower
[1]; topical at 1, 3, 7, 10, 17 h post-LPS, approximately six hours post LPS
  overall ophthalmic examination score: significantly lower; also recorded: statistically lower
[1]; topical, approximately 24 hours post LPS
  overall ophthalmic examination score: significantly lower
[2]; 200 mg/kg PO BID (Groups 5, 6, 7, 8, 9, and 10)
  Body weights: did not differ significantly
[2]; [4]
  Colon lengths, increase in the direction of normal: 41%
  PMN percentages in the proximal colon: significantly increased
  distal colon edema, reduction: 78%
  distal colon hyperplasia, reduction: 86%
  distal colon mucosal thickness, reduction: 66%
  full colon edema, reduction: 62%
  proximal colon edema, reduction: 43%
[2]; [5]
  full colon edema, reduction: 48%
  proximal colon edema, reduction: 60%
  proximal colon mucosal thickness, reduction: 58%
[2]; Day 2, 200 mg/kg PO BID, Days 0 through 6
  DAI stool consistency scores: significantly reduced
